Assay results from patent US11236055B2 (Venenum Biodesign, LLC, priority 2016, dated 2022).
Blank lines part the entries; values can stand above or below the compound they belong to.

Columns and labels:
[1] = Absorption vs. first pass metabolism: Cmax with and without 1-aminobenzotriazole (ABT) pre-treatment; format: in vivo, mouse; conditions: ICR, mouse, plasma; lean mice receiving ABT (150 mg/kg) 2 h before compound, 10 mg/kg oral
Procedure: Absorption Vs. First Pass Metabolism
In this study, the absorption was examined as compared to first pass metabolism of the compounds of the present invention. ICR mice (Hilltop) were pre-treated with 1-aminobenzotriazole (ABT), a nonselective inhibitor of cytochrome P450 enzymes to inhibit Cyp450-mediated degradation of the compounds in liver.
ABT was administered at 150 mg/kg in 5 mL/kg of 0.04% ethanol in 0.5% methyl cellulose (w/v) by oral gavage, 2 hours prior to test compound administration. The compounds 20AA and 20AC were administered by oral gavage at 10 mg/kg in 10 mL/kg of 20% PEG400/80% (0.5% (w/v) CMC containing 0.25% (v/v) Tween 80) (v/v), 2 hours after the ABT treatment. Blood was collected via orbital bleeding at predose, 0.25, 0.5, 1, 2, and 4 hours post-dose and the quantification of compound levels in plasma was accomplished by means of LC-MS/MS analysis as described in Example 59. Reference compound “Propranolol” that is known to be metabolized by Cyp450 was used as a positive control.
FIG. 4 depicts the Cmax (nM) of the compounds of the present invention with and without ABT pre-treatment.

[2] = Comparison of PK in DIO mice and lean mice; format: in vivo, mouse; conditions: for Cmax / Tmax / AUC(0-t): mouse, plasma, po; for AUC(0-t): read-out: AUC (0-4 h)
Procedure: Comparison of PK in DIO Mice and Lean Mice
The PK characteristics of Compound 20AA were examined in non-fasted lean C57BL/6N and DIO mice (Taconic). Compound 20AA was orally administered to both groups at 10 mg/kg by oral gavage and plasma concentration of the compound was determined as described in Example 59.
In addition, PK parameters were determined for Compound 20AA (i.e., Cmax, Tmax and AUC) following oral administration in four groups of mice: (i) fasted lean mice; (ii) non-fasted lean mice; (iii) non-fasted DIO mice; and (iv) lean mice receiving ABT.

[3] = Portal vein versus systemic pharmacokinetics in hepatic portal vein cannulated rats; format: in vivo, rat; conditions: portal vein cannulated male CD (SD) rats, 10 mg/kg oral; for Cmax / Tmax / AUC(0-t): rat; for AUC(0-t): read-out: AUC (0-7 h)
Procedure: Low Level of Compounds is Attributed to Low Intestinal Absorption
In this study, it was determined if the low plasma level of the compounds of the present invention is due to low absorption in the gut, or due to the first pass effect (i.e., absorption followed by a rapid degradation of compounds by liver). Hepatic portal vein cannulated male CD (SD) rats obtained from Charles River Laboratory were utilized. In brief, Compound 20BG was administered orally at 10 mg/kg, and blood was obtained simultaneously from the portal vein and systemic circulation (retro-orbital sinus) at pre-dose, 0.25, 0.5, 1, 2, and 4 hours post-dose, in EDTA coated tubes. The samples were processed into plasma and quantification of compound levels in the plasma was accomplished by means of LC-MS/MS analysis as described in Example 59.

DIO mice = test: Weight loss after multiple days of dosing in DIO mice; format: in vivo, mouse; conditions: DIO mice on high fat diet, oral BID for 12 days
Procedure: Monitoring of Weight Loss after Multiple Days of Dosing Compounds
Compounds of the present invention were dosed for multiple days and were evaluated for their ability to cause mice to lose weight. In the next series of studies (Examples 66-70), Male DIO mice were received at 12 weeks of age (from Taconic), and were single-housed at the testing facility and acclimated for at least 2 weeks. The mice were provided a high fat diet [Research Diet D12492 (60% Fat kcal)] while in the testing facility. Before the study initiation, the animals were randomized into 5 experimental groups by body weight. The vehicle group contained only 0.5% carboxymethylcellulose (medium viscosity)+0.25% Tween-80. The second group contained 10 mg/kg of the DPP-IV inhibitor Linagliptin while the third group contained 10 mg/kg Compound 20BG. The fourth group contained the combination of 10 mg/kg Linagliptin and 10 mg/kg Compound 20BG. The fifth group was the positive control for weight loss, Liraglutide. All mice, except the Liraglutide group, were dosed BID at approximately 6:00 am and again at approximately […]. The positive control liraglutide was administered at a dose of 0.2 mg/kg subcutaneously in the afternoon.
Compounds of the present invention were evaluated for their ability to cause mice to lose weight. Mice were dosed compounds for 12 days and body weights were recorded twice a week.

[4] = C57BL/6N, 10 mg/kg, DIO mice, non-fasted, 10 mpk
[5] = C57BL/6N, 10 mg/kg, Lean mice, non-fasted, 10 mpk
[6] = C57BL/6N, 10 mg/kg, Non-fasted DIO mice, 10 mg/kg oral
[7] = C57BL/6N, 10 mg/kg, Non-fasted Lean mice, 10 mg/kg oral
[8] = Fasted Lean mice, oral administration
[9] = portal vein plasma, Portal Vein bleed
[10] = systemic plasma (retro-orbital sinus), Peripheral bleed (retro-orbital sinus)

Cmax [1]: 2.6 nM | Tmax [1]: 0.25 h | Cmax [2, 4]: 1.7 nM | Tmax [2, 4]: 1 h | Cmax [2, 5]: 3 nM | Tmax [2, 5]: 1 h | Cmax [2, 6]: 1.7 nM | Tmax [2, 6]: 1 h | AUC(0-t) [2, 6]: 7.6 ng·h/mL | Cmax [2, 7]: 3 nM | Tmax [2, 7]: 0.25 h | AUC(0-t) [2, 7]: 4 ng·h/mL | PK profile (Cmax, Tmax, AUC) ([2]; lean and DIO mice, fasted or non-fasted, oral administration): low PK profile | Cmax [2, 8]: 7.2 nM | Tmax [2, 8]: 1 h | AUC(0-t) [2, 8]: 26 ng·h/mL
Structure (SMILES): Cc1cnccc1-c1cccc(C(C)(C)N(CCCC(=O)NCCS(=O)(=O)O)S(=O)(=O)c2ccccc2C(F)(F)F)c1 [Compound 20AA, 2-(4-(N-(2-(3-(3-methylpyridin-4-yl)phenyl)propan-2-yl)-2-(trifluoromethyl)phenylsulfonamido)butanamido)ethanesulfonic acid]

absorption (PK in portal vein and systemic circulation) [3]: very low absorption | Cmax [3, 9]: 7.6 ± 3.6 ng/mL | Tmax [3, 9]: 0.25 to 2 h | AUC(0-t) [3, 9]: 30.1 ± 0.9 ng·h/mL | Cmax [3, 10]: 1.3 ± 0.7 ng/mL | Tmax [3, 10]: 0.25 to 1 h | AUC(0-t) [3, 10]: 3.1 ± 10.8 ng·h/mL
Structure (SMILES): CCc1cnccc1-c1cccc([C@H](C)N(CCCC(=O)NCCS(=O)(=O)NCC(=O)O)S(=O)(=O)c2ccccc2C(F)(F)F)c1 [Compound 20BG]
body weight change (DIO mice): modest weight loss
